Consider four molecules from patent US12357621B2, “BET inhibitors as a treatment for myelofibrosis” (Impact Biomedicines, Inc., priority 2021, dated 2025).

Molecules are shown by their SMILES. Like-named read-outs stand apart in the source and are kept apart here.

Data set [1] deals with HEL92.1.7 cells. As to the kind of experiment: CellTiter-Glo proliferation/viability assay, single agent and JAKi combination (Example 1). The following applies: single agent; for IC50: 3 days incubation, CTG. It is filed as cell-based. The procedure: (§1) HEL92.1.7 and SET-2 are post-MPN secondary acute myeloid leukemia (sAML) cell lines that harbor the JAK2 V617F mutation and serve as cell line models of the malignant clones driving disease in MPNs.
(§2) HEL92.1.792.1.7 (post-MPN sAML), a homozygous mutant (V617F), SET-2 (post-MPN sAML), a heterozygous mutant (V617F), were cultured in Roswell Park Memorial Institute (RPMI) 1640 medium (ATCC) supplemented with 10% or 20% fetal b ovine serum (FBS) (Corning) for HEL92.1.792.17 or SET-2 respectively, 2 mM L-glutamine (L-glu) (Gibco), and non-essential amino acid 1× (NEAA) cell culture supplement (Gibco). WI-38 primary lung fibroblastWI-38 were cultured in Eagle's Minimum Essential Medium (EMEM) (ATCC) with 10% FBS, 2 mM L-glu, and 1× NEAA.
(§3) CellTiter-Glo® (CTG), a luminescent dye that measures adenosine-5′-triphosphate (ATP), was used to quantify the cell proliferation in the 3 cell types in duplicate. Compound (I) was pre-spotted into 384-well plates (diluted in final dimethyl sulfoxide [DMSO] concentration of 0.1% for assay volume of 50 μL). A 10-point dose-response starting at […] with a 4-fold dilution that included one DMSO point and nine drug points was tested for each cell line. The JAK inhibitors (JAKi) Rux and Fed were also pre-spotted at concentrations of 0, 0.03, 0.1, 0.3, and 0.6 μM and HEL92.1.7 constant for each 10-point the Compound (I) dose-response curve (DRC) to produce five compounds of formula (I) DRCs for each JAKi in each cell line.
(§4) A cell suspension volume of 50 μL at their respective seeding densities was added to 384-well plates containing Compound (I) plus JAKi. The effect of Compound (I) single agent or JAKi combination on the proliferation/viability of cells was assessed after 3 days of incubation. Twenty-five microliters of CTG per well was then dispensed to the cell suspension, and ATP released by viable cells was measured after a 30-minute incubation as relative luminescence units (RLU) using an EnVision plate reader (PerkinElmer, Covina, CA). Cytotoxicity was indicated by a lower ATP level in the media after 3-day drug treatment compared to the Day 0 ATP level. Day 0 CTG was read for HEL92.1. and SET-2 suspension cell lines while the Day 0 CTG read for WI-38 could not be read because it is an adherent cell line.
(§5) Percent growth (% Growth) was calculated with the equation [% Growth=(Day 5 RLU—Day 0 RLU)/(Day 0 RLU)] while percent DMSO (% DMSO) was calculated with the equation [% DMSO=(Treatment RLU/DMSO RLU)×100]. All data was analyzed by GraphPad Prism 7 with the XY analyses nonlinear regression curve fit using the parameters for “log(inhibitor) vs. response—Variable slope (four parameters).” Cytotoxicity was called if any part of the DRC CTG signal went below the Day 0 CTG read and cytostatic effects were indicated by the DRC CTG signal staying above the Day 0 line.
(§6) Combination analysis was performed with software Combenefit version 2.021. Combination matrix plots describing additivity effects were generated with the Highest Single-Agent (HSA) model, combination matrix plots describing synergy effects were generated with the Bliss model, and the HSA and Bliss scores for each combination matrix plot were tabulated. An arbitrary cut off-of 10 for HSA and Bliss scores was used to reflect significant additivity and synergy, respectively. […]
(In general: Cellular ATP, detected with luciferase, serves as a proxy for viable cell number.)

In data set [2] the test system is SET-2 cells. The data set is described as above. It is filed as cell-based. The following applies: single agent. The method, then:
as §1, §2, §3, §4, §5, §6

Data set [3] relates to primary human myelofibrosis samples. As to the kind of experiment: Colony formation assay in primary myelofibrosis samples (Example 2). The settings on record: for IC50: Homo sapiens. In kind it is cell-based. The method, then: (§7) Bone marrow or peripheral blood mononuclear cells from myelofibrosis (MF) patients were directly seeded in semisolid Methocult media (H3404) with Compound (I) alone, (at concentrations ranging from 1.25 to 10 nM) or in combination with Fed (at 100 and 300 nM) or Rux (at 30 and 100 nM). Treatment was added at the beginning and maintained throughout the 14-day incubation period without compound washout.
(§8) Colony forming unit (CFU) data acquisition and automatic colony counting were performed using the STEMvision device and software (StemCell Technologies, Vancouver, Canada). Counting corrections according to standard criteria were done manually by a trained user. GraphPad Prism 7 was used for data plotting and analysis.

Data set [4] deals with bone marrow CD34+ cells from healthy volunteers. The data set is described as follows: Colony-forming assay with normal hematopoietic progenitors (Example 2). In kind it is cell-based. The settings on record: Homo sapiens, 336 h, healthy donors, 14 days. The procedure:
as §7
To test the effects of Compound (I) on the functionality of normal hematopoietic progenitors, colony-forming assays were also done with bone marrow CD34^+ cells from healthy volunteers using the same conditions of treatment as described for MF samples.
as §8

The test system of data set [5] is HEL92.1.7 cells. As to the kind of experiment: CellTiter Glo cell viability assay (Example 5). In kind it is cell-based. The following applies: for IC50: Homo sapiens. The method, then:
(§9) Cells were seeded in 96-well plates at 10,000 cells per well in 100 μL of media containing either 0.1% DMSO or varying concentrations of drug. Cell viability was determined 3 days and 5 days later via the CellTiter GloLuminescent Cell Viability Assay from Promega (Madison, WI) according to the manufacturer's protocol. Specifically, 50 μL of reagent was added to each well and plates were incubated for 10 minutes in the dark to stabilize the luminescent signal. Luminescence was then detected using a chemiluminescence detection system (EnVision Multimode Microplate Reader; PerkinElmer).

Data set [6] concerns SET-2 cells. The data set is described as follows: CellTiter Glo cell viability assay (Example 5). The settings on record: for IC50: Homo sapiens. It is filed as cell-based. The method, then: as §9
A short description of data set [7]: First-in-human PK study of Compound (I) (Example 6). In kind it is in vivo. The following applies: for Cmax: Cycle 2 Day 5, 5 days on/2 days off, read-out: Cmax Cycle 2 Steady State (geometric mean). The procedure: A first-in-human study was conducted on Compound (I) with select advanced tumors and hematologic malignancies. PK data was available from 65 subjects across 5 doses and 3 schedules. Intensive samples were collected on Cycle 1 Day 1 and Cycle 2 Day 5, Day 7, or Day 14 based on dosing schedule (5 days on/2 days off, 7 days on/14 days off, and 14 days on/7 days off).

Data set [8] concerns cell models expressing mutationally active JAK2V617F or FLT3ITD. The settings on record: cited from earlier work.
Data set [9] has as its system mouse models of JAK2V617F-driven myeloproliferative disease. The following applies: in vivo; cited from earlier work.
For data set [10] the following is noted: 125 mg QD; clinical studies; cited from earlier work.

`Cc1nnn(C)c1-c1cnc2c3ccc(C(C)(C)O)cc3n([C@H](c3ccccc3)C3CCOCC3)c2c1` [Compound (I)]: the IC50 in data set [1] (Homo sapiens, HEL 92.1.7, 72 h) was 0.0062 µM; in data set [1] it was 0.0056 µM; in data set [2] (Homo sapiens, 72 h, 3 days incubation, CTG) it was 0.0019 µM; in data set [3] (336 h, range among 10 primary human myelofibrosis samples, 14 days, read-out: IC50 values for inhibition of colonies) it was 0.00125 to 0.00446 µM; in data set [3] (336 h, sample MF 18 (JAK2), single agent, colony formation 14 days, read-out: IC50 Compound (I)) it was 0.00158 µM; in data set [3] (336 h, sample MF 22 (WT), single agent, colony formation 14 days, read-out: IC50 Compound (I)) it was 0.0037 µM. Also, the half-maximal inhibitory concentration (IC50) in data set [3] (336 h, sample MF 29 (JAK2), single agent, colony formation 14 days, read-out: IC50 Compound (I)) came out at 0.00256 µM; in [3] (336 h, sample MF 31 (CALR), single agent, colony formation 14 days, read-out: IC50 Compound (I)) it was 0.00202 µM; in [3] (336 h, sample MF 33 (CALR), single agent, colony formation 14 days, read-out: IC50 Compound (I)), 0.00446 µM; in [3] (336 h, sample MF 38 (WT), single agent, colony formation 14 days, read-out: IC50 Compound (I)) it was 0.00211 µM; in [3] (336 h, sample MF 54 (JAK2), single agent, colony formation 14 days, read-out: IC50 Compound (I)) it was 0.00125 µM; in [3] (336 h, sample MF 63 (CALR), single agent, colony formation 14 days, read-out: IC50 Compound (I)), 0.0026 µM. Moreover, the IC50 was 0.00343 µM in data set [3] (336 h, sample MF 76 (JAK2), single agent, colony formation 14 days, read-out: IC50 Compound (I)); 0.00127 µM in data set [3] (336 h, sample MF 77 (JAK2), single agent, colony formation 14 days, read-out: IC50 Compound (I)); roughly 0.0023 µM in data set [4] (read-out: IC50 for inhibition of BFU-E); roughly 0.003 µM in [4] (CFU-GM, read-out: IC50 for inhibition of CFU-GM); 0.015 µM in [5] (HEL 92.1.7, 72 h, Day 3, read-out: single agent IC50); 0.019 µM in data set [5] (HEL 92.1.7, 120 h, Day 5, read-out: single agent IC50). For the same molecule, the IC50 amounted to 0.0028 µM in [6] (72 h, Day 3, read-out: single agent IC50) and 0.0024 µM in data set [6] (120 h, Day 5, read-out: single agent IC50). Further, the “cytotoxic vs cytostatic effect” value in data set [1] (CTG signal vs Day 0) and in data set [2] (CTG signal vs Day 0) was “cytotoxic effects” throughout. The “therapeutic index (TI)” value in [3] (in 7 out of 10 MF samples, ratio of IC50 in MF sample and average IC50 in normal bone marrow CD34+ cells) is reported as greater than 1 fold. The “activity compared to CPI-0610” value in data set [5] (viability) and in [6] (viability) was “better activity” throughout. Also, the Cmax turned out to be 272 nM in data set [7] (dose 0.75 mg); 577 nM in data set [7] (dose 1.25 mg); 892 nM in data set [7] (dose 2.0 mg); 1200 nM in data set [7] (human, in vivo, dose 3.0 mg); 1840 nM in [7] (human, in vivo, dose 4.5 mg). Further, the half-life in data set [7] (in vivo, single dose, 5 days on/2 days off schedule, human, read-out: terminal half-life (converted)) was roughly 64 h.

Regarding `N#CC[C@H](C1CCCC1)n1cc(-c2ncnc3[nH]ccc23)cn1` [ruxolitinib], the IC50 in [3] (sample MF 18 (JAK2), ruxolitinib alone, read-out: IC50 RUX) came to 0.0355 µM; in data set [3] (sample MF 22 (WT), ruxolitinib alone, read-out: IC50 RUX), 0.212 µM; in data set [3] (sample MF 29 (JAK2), ruxolitinib alone, read-out: IC50 RUX), 0.212 µM; in [3] (sample MF 31 (CALR), ruxolitinib alone, read-out: IC50 RUX) it was 0.284 µM; in data set [3] (sample MF 33 (CALR), ruxolitinib alone, read-out: IC50 RUX) it was 0.862 µM; in [3] (sample MF 38 (WT), ruxolitinib alone, read-out: IC50 RUX) it was 0.217 µM. Besides, the IC50 was 0.686 µM in data set [3] (sample MF 54 (JAK2), ruxolitinib alone, read-out: IC50 RUX); 0.0706 µM in data set [3] (sample MF 63 (CALR), ruxolitinib alone, read-out: IC50 RUX); 0.686 µM in data set [3] (sample MF 76 (JAK2), ruxolitinib alone, read-out: IC50 RUX); 0.528 µM in data set [3] (sample MF 77 (JAK2), ruxolitinib alone, read-out: IC50 RUX).

For the molecule `Cc1cnc(Nc2ccc(OCCN3CCCC3)cc2)nc1Nc1cccc(S(=O)(=O)NC(C)(C)C)c1` [fedratinib], the IC50 in data set [3] (sample MF 18 (JAK2), fedratinib alone, read-out: IC50 FEDR) was found to be 0.146 µM; in data set [3] (sample MF 22 (WT), fedratinib alone, read-out: IC50 FEDR), 0.309 µM; in [3] (sample MF 29 (JAK2), fedratinib alone, read-out: IC50 FEDR), 0.472 µM; in data set [3] (sample MF 31 (CALR), fedratinib alone, read-out: IC50 FEDR), 0.908 µM; in [3] (sample MF 33 (CALR), fedratinib alone, read-out: IC50 FEDR), 0.93 µM; in data set [3] (sample MF 38 (WT), fedratinib alone, read-out: IC50 FEDR), 0.931 µM. For the same molecule, the IC50 in data set [3] (sample MF 54 (JAK2), fedratinib alone, read-out: IC50 FEDR) is 0.381 µM; in data set [3] (sample MF 63 (CALR), fedratinib alone, read-out: IC50 FEDR) it was 0.779 µM; in [3] (sample MF 76 (JAK2), fedratinib alone, read-out: IC50 FEDR), greater than 1 µM; in data set [3] (sample MF 77 (JAK2), fedratinib alone, read-out: IC50 FEDR), 0.695 µM. Moreover, the apoptotic cell death entry in [8] is reported as “induced”. In data set [8], the cell proliferation entry was “inhibited”. Moreover, the “phosphorylation of STAT3 and STAT5 proteins” value in data set [8] is listed as “reduced”. The “phosphorylation of STAT3/5” value in data set [9] is recorded as “blocked”. For the same molecule, the “survival, WBC counts, hematocrit, splenomegaly, and fibrosis” value in data set [9] was “improved”.

For `Cc1noc2c1-c1ccccc1C(c1ccc(Cl)cc1)=N[C@H]2CC(N)=O` [CPI-0610], in data set [10], the Cmax was 4000 nM and the T1/2 was 16 h.

One may read the IC50 as the concentration at which inhibition is half-maximal. As a reminder, the Cmax is the maximum level reached in the sampled fluid or tissue. As a reminder, the half-life is the time in which the quantity being followed falls by half.
